Here are results for 3 molecules from patent publication US20230172928A1 (priority 2020, published 2023).

Data set [1] in a line: Adverse events of decreased left ventricular ejection fraction. Also on record: species or system human. To be noted: in vivo. The text has this: Patients with EGFR-mutant NSCLC have a high disease control rate with EGFR inhibitors (e.g., erlotinib, gefitinib, osimertinib), but resistance invariably develops. Resistance mechanisms are heterogeneous, but commonly result in restoration of mutant EGFR signaling and/or amplification or overexpression of RTKs other than EGFR (such as MET) or of their ligands.

The test system of data set [2] is HCC2279 cells. As to the kind of experiment: Cell proliferation / combination dose matrix assay (CellTiter-Glo). Format: cell-based. The note with it: Homo sapiens; HCC2279, EGFR ex19del. How it is done:
(§1) Human cancer cell lines originated from the CCLE (Cancer Cell Line Encyclopedia) authenticated by single-nucleotide polymorphism analysis and tested for mycoplasma infection using a PCR-based detection technology (IDEXX BioAnalytics) when CCLE was established in 2012. All cell lines used were directly thawed from the CCLE collection stock. All cell lines were cultured in RPMI Medium (ThermoFisher Scientific) except HT-29 (McCoy's 5A), RKO (MEMα), MDST8 (DMEM), A-427 (MEMα) and MIA PaCA-2 (DMEM), supplemented with 10% FBS (VWR). Cell lines were used within 15 passages of thawing and continuously cultured for less than 6 months.
(§2) For combination dose matrix assay, 2000 to 3000 cells were seeded in 96-well plates in 80 μL media per well. On the second day, serial dilutions of the two combination agents were subsequently added, each in 20 μL media at 6× of final indicated concentrations. 3 days later, cell viability was measured by the CellTiter-Glo Assay (Promega #G7573). The mean and standard deviation (n=3) of percentages of inhibition (relative to the DMSO-treated control) of compound-treated cells and synergy scores between the two compounds were determined. Synergy scores greater than 2 are considered to have synergistic rather than additive effects.
(§3) Statistical analyses were performed and curve fit and IC50 values were generated using GraphPad Prism 8 software. Statistical significance was determined using unpaired, paired student t test, or Mann-Whitney test. Significance was set at p=0.05.

Data set [3] relates to HCC4006 cells. The data set is described as above. Type of data set: cell-based. The note with it: Homo sapiens; HCC4006, EGFR ex19del. How it is done: as §1, §2, §3
Data set [4] concerns NCI-H1650 cells. The data set is described as above. Format: cell-based. The note with it: Homo sapiens; NCI-H1650, EGFR ex19del. How it is done: as §1, §2, §3
In data set [5] the test system is NCI-H3255 cells. The data set is described as above. Format: cell-based. The note with it: Homo sapiens, NCI-H3255, NCI-H3255, EGFR L858R. Here is the method:
as §1, §2, §3

Data set [6] has as its system HCC827 cells. Described as above. The note with it: Homo sapiens, HCC827, HCC827, EGFR ex19del. Type of data set: cell-based.
Excerpt: Human cancer cell lines originated from the CCLE (Cancer Cell Line Encyclopedia) authenticated by single-nucleotide polymorphism analysis and tested for mycoplasma infection using a PCR-based detection technology (IDEXX BioAnalytics) when CCLE was established in 2012. All cell lines used were directly thawed from the CCLE collection stock. […] Cell lines were used within 15 passages of thawing and continuously cultured for less than 6 months.
Data set [7] relates to PC14 cells. As to the kind of experiment: Immunoblot of PC14 cell lysates (p-ERK, c-PARP, BIM). Type of data set: cell-based, human. To be noted: nazartinib 0.1 or 0.3 μM, 3 μM TNO155 or combination, 4 h or 24 h. How it is done:
For immunoblotting: Cells (200,000 to 750,000) in 2 mL growth media were seeded in 6-well plates (Corning, #3506). After 24 hours, cells were treated with compounds or growth factors at the indicated concentrations and duration. Cells were lysed on ice in RIPA buffer (Boston Bioproduct #BP-115) supplemented with 1 mM EDTA and Halt Protease and Phosphatase Inhibitor Cocktail (Thermo Fisher Scientific #1861281). Lysates were centrifuged at 14,000 rpm at 4° C. for 15 minutes and protein concentrations were determined using BCA protein assay (Thermo Fisher Scientific). […] The bound primary antibodies were visualized using Goat anti-rabbit IgG secondary antibody conjugated with Alexa Fluor 700 and goat anti-mouse IgG secondary antibody conjugated with IRDye 800 CW and scanning with an Odyssey Infrared Imager System (Li-Cor). […]
(In general: In western blotting, separated proteins are transferred to a membrane and probed.)

Data set [8] deals with PC9 cells. As to the kind of experiment: Cell proliferation / combination dose matrix assay (CellTiter-Glo). Format: cell-based, human. Here is the method: as §1, §2, §3
Data set [9] relates to PC14 cells. Described as above. Format: cell-based, human. To be noted: for IC50: Homo sapiens, PC-14, PC14, EGFR ex19del. Here is the method:
(§4) Human cancer cell lines originated from the CCLE (Cancer Cell Line Encyclopedia) authenticated by single-nucleotide polymorphism analysis and tested for mycoplasma infection using a PCR-based detection technology (IDEXX BioAnalytics) when CCLE was established in 2012. All cell lines used were directly thawed from the CCLE collection stock. All cell lines were cultured in RPMI Medium (ThermoFisher Scientific) except HT-29 (McCoy's 5A), RKO (MEMα), MDST8 (DMEM), A-427 (MEMα) and MIA PaCA-2 (DMEM), supplemented with 10% FBS (VWR). Cell lines were used within 15 passages of thawing and continuously cultured for less than 6 months. For combination dose matrix assay, 2000 to 3000 cells were seeded in 96-well plates in 80 μL media per well. On the second day, serial dilutions of the two combination agents were subsequently added, each in 20 μL media at 6× of final indicated concentrations. 3 days later, cell viability was measured by the CellTiter-Glo Assay (Promega #G7573). The mean and standard deviation (n=3) of percentages of inhibition (relative to the DMSO-treated control) of compound-treated cells and synergy scores between the two compounds were determined. […] Statistical analyses were performed and curve fit and IC50 values were generated using GraphPad Prism 8 software. Statistical significance was determined using unpaired, paired student t test, or Mann-Whitney test. Significance was set at p=0.05. […] After 3 days (PC14) or 6 days (NCI-H1975), cell proliferation was measured using the Cell Titer-Glo® assay and luminescent signals of each dose combination were normalized to that of the DMSO (vehicle control) group.

In data set [10] the test system is NCI-H1975 cells. The description is as above. Format: cell-based, human. The note with it: for IC50: Homo sapiens, NCI-H1975, EGFR L858R/T790M. How it is done:
as §4

The target in data set [11] is CYP3A4 (Homo sapiens, UniProt P08684). As to the kind of experiment: CYP3A4 interaction / metabolism.
For data set [12], the system named is patients with EGFRmutated NSCLC. As to the kind of experiment: First-in-human study of nazartinib (CEGF816X2101). Format: in vivo. To be noted: 75 mg to 350 mg QD. How it is done: Nazartinib has been studied in 7 clinical trials.
(§5) The starting dose of nazartinib in this study is 150 mg QD, dosed continuously. In CEGF816X2101, the first-in-human study of nazartinib, doses of nazartinib from 75 mg daily to 350 mg daily were investigated. […] Thus the starting dose of 20 mg QD, 2 weeks on/1 week off provides an adequate tolerability margin for combination with nazartinib 150 mg QD.

Data set [13] concerns EGFR-dependent DETROIT-562 cancer cell line. As to the kind of experiment: In vivo SHP2 inhibition and efficacy, DETROIT-562 model. The note with it: orally-administered, 20 mg/kg.
For data set [14], the system named is KYSE-520 (esophageal squamous cell carcinoma) cells. As to the kind of experiment: in vitro antiproliferation. Format: cell-based. To be noted: Homo sapiens.
For data set [15], the system named is pERK in DETROIT-562 (pharyngeal squamous cell carcinoma) cells. As to the kind of experiment: in vitro pERK inhibition. Type of data set: cell-based. The note with it: Homo sapiens.
Data set [16] has as its system EGFR L858R model 29665HXXTM. To be noted: osimertinib 10 mpk daily, TNO155 10 mpk BID.
Data set [17] is described as follows: TNO155 regimens tested in patients. Format: in vivo, human. The note with it: 60 mg QD 2 weeks on/1 week off and 40 mg QD 3 weeks on/1 week off. How it is done:
as §5

For data set [18], the system named is EGFR L858R model 29667HXXTM. To be noted: osimertinib 10 mpk daily, TNO155 10 mpk BID.
For data set [19], the system named is DETROIT-562 (pharyngeal squamous cell carcinoma) cells. As to the kind of experiment: in vitro antiproliferation. Type of data set: cell-based. The note with it: Homo sapiens.
The conditions of data set [20]: mice.
In data set [21] the test system is EGFR L858R model 29666HXXTM. To be noted: osimertinib 10 mpk daily, TNO155 10 mpk BID.
Data set [22] has as its system pERK in KYSE-520 (esophageal squamous cell carcinoma) cells. As to the kind of experiment: in vitro pERK inhibition. To be noted: Homo sapiens. Type of data set: cell-based.
The conditions of data set [23]: Tagrisso prescribing information; cited from earlier work.
Setting [24] is: Homo sapiens, PC-9, PC9, EGFR ex19del.

SMILES strings stand for the structures. Several values for one entry are separate records, joined by “and”; a condition that tells them apart may be missing. Identical values can stand only once. Like-named read-outs stand apart in the source and are kept apart here. Bounds are passed on as bounds.

Chain of CYP3A4 (P08684 whole entry): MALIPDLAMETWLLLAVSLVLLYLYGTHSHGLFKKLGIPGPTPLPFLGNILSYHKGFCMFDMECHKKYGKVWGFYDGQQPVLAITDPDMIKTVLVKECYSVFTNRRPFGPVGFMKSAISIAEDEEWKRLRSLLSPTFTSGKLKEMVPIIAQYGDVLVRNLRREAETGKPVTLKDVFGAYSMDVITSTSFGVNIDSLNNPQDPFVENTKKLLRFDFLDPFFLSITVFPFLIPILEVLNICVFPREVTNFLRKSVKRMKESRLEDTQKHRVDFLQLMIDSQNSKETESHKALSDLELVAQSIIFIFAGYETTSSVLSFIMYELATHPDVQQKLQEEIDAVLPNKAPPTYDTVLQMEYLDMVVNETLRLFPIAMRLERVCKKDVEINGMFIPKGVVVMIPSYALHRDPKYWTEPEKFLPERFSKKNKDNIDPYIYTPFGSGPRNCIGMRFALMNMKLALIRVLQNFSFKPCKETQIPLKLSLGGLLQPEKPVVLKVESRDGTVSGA

For `Cc1cc(C(=O)Nc2nc3cccc(Cl)c3n2[C@@H]2CCCCN(C(=O)/C=C/CN(C)C)C2)ccn1` [Nazartinib, (R,E)-N-(7-chloro-1-(1-(4-(dimethylamino)but-2-enoyl)azepan-3-yl)-1H-benzo[d]imidazol-2-yl)-2-methylisonicotinamide], the “adverse events of decreased left ventricular ejection fraction” value in data set [1] was “not associated with adverse events of decreased left ventricular ejection fraction”. Also, the 50% inhibitory concentration (IC50) in data set [2] was above 3000 nM; in data set [3], 60 nM; in data set [4], above 3000 nM; in data set [5] it was 10 nM; in [6] it was 40 nM; in [8] (setting [24]) it was 10 nM. Besides, the IC50 in data set [9] was found to be 50 nM; in data set [10] it was 170 nM. The p-ERK levels entry in [7] is “rebound of p-ERK levels was observed after 24 h”. Also, in data set [11], the metabolism result is listed as “primarily metabolized by CYP3A4”. Further, the anti-tumor efficacy entry in data set [12] is “anti-tumor efficacy was observed at all doses”. Further, in data set [12], the maximum tolerated dose result is recorded as “not established”.

Take `C[C@@H]1OCC2(CCN(c3cnc(Sc4ccnc(N)c4Cl)c(N)n3)CC2)[C@@H]1N` [TNO155, (3S,4S)-8-(6-amino-5-((2-amino-3-chloropyridin-4-yl)thio)pyrazin-2-yl)-3-methyl-2-oxa-8-azaspiro[4.5]decan-4-amine]: the “decrease in DUSP6 mRNA transcript” value in data set [13] is listed as “approximately 95%”. Further, the regression in [13] (twice-daily schedule) is reported as 47%. In addition, the IC50 was above 10000 nM in [2]; above 10000 nM in [3]; above 10000 nM in data set [4]; 100 nM in [14]; below 1500 nM in [8] (setting [24]); 1460 nM in data set [8] (PC9, EGFR ex19del). The IC50 in data set [15] was 35 nM; in data set [9], 5010 nM; in data set [10] it was above 10000 nM; in [19], 470 nM; in [22], 8 nM and 0.0034 µg/mL. Also, the p-ERK levels entry in data set [7] was “effectively reduced p-ERK levels at 4 h but also suffered a rebound at 24 h”. Moreover, the “anti-tumor activity (tumor volume)” value in [16] is on record as “minimal activity”; in data set [18] it was “minimal activity”; in data set [21] it was “effectively slowed down the tumor growth”. Also, the single agent activity result is given as “lacks single agent activity” in [9] (PC14, low concentrations, e.g. 0.124 μM) and “lacks single agent activity” in data set [10] (NCI-H1975, low concentrations, e.g. 0.124 μM). For the same molecule, in [17], the tolerability entry was “tolerated”. Also, in data set [11] (human), the “CYP3A4 induction / inhibition” value is “neither an inducer nor inhibitor of CYP3A4”. The half-life result in data set [20] is listed as “short half-life”. The maximum tolerated dose in data set [20] (twice a day (BID)) is given as 20 mg per kilogram body weight (mpk).

As to `C=CC(=O)Nc1cc(Nc2nccc(-c3cn(C)c4ccccc34)n2)c(OC)cc1N(C)CCN(C)C` [osimertinib, reference compound], the “adverse events of decreased left ventricular ejection fraction” value in data set [23] is “Such events have been described”. Further, the figures for the “anti-tumor activity (tumor volume)” value in data set [16], in data set [18] and in data set [21] were “strong”, “modest” and “only transient efficacy”, respectively.

As a reminder, the IC50 is the concentration needed to halve the response being measured.
